For one experiment, the system named is DIO C57BL/6 mice. The experiment is described as follows: Diet-induced obesity (DIO) in C57BL/6 mice, Example 3. Format: in vivo, mouse. The note with it: for Glucose Tolerance (IPGTT), Week 5: DIO vehicle 1719.7 ± 56.8, chow vehicle 1213.6 ± 54.1; for glucose tolerance in the obese mouse model (in words): IPGTT, 1 g/kg D-glucose i.p.; for abdominal fat index / subcutaneous fat index: after 14 weeks of treatment. As for the experimental part:
To analyze the pharmacodynamic effects of SS-31 and SS-20 against diet-induced obesity (D10) in C57BL/6 mice, the test subjects were fed either a normal diet or a high-fat diet having the composition shown in Table 9.
After several days of acclimation, animals were weighted and randomly assigned to the following treatment groups.
Starting from the first day of treatment, animals in Groups B to I were switched to HFD. During the entire treatment period, the following activities were performed on specific days.
Dose Preparation & Administration. The treatment was given once a day (5 days a week) with injection site alternated. The concentration of SS-31 and SS-20 dosed at 3 mg/kg was 0.6 mg/ml and that of 10 mg/kg was 2 mg/ml. The treatment volume (0.05 mUl0 g for s.c. and 0.2 ml/10 g for p.o.) for each test animal was adjusted according to its body weight taken on the beginning of each week.
Blood Sample Collection. Blood samples were collected by tail snip according to the Medicilon/MPI Preclinical Research (Shanghai) LLC SOP on Blood Collection Techniques. […] Collected blood samples were set at room temperature for 1 hour to allow clotting before being centrifuged at 2,000×g for 10 min. The supernatant were collected and re-centrifuged at 2,000×g for another 10 min. to generate the serum. Part of the serum samples were used for total cholesterol (TC) analysis immediately. The rest were stored at −20° C. until being used in insulin analysis.
Serum Insulin, Triglyceride (TG) & Total Cholesterol (TC). Serum insulin levels were measured using Rat/Mouse Insulin ELISA Kit from Millipore Corporation (Catalog # EZRMI-13K, St. Charles, Mo., USA). Serum TG levels were measured by automatic biochemical analyzer. FIG. 5A is a chart illustrating the effects of peptide treatment on triglycerides in a murine model of diet-induced obesity after 14 weeks of treatment. FIG. 5B is a chart illustrating the effects of peptide treatment on total cholesterol in a murine model of diet-induced obesity after 14 weeks of treatment. FIG. 5C is a chart illustrating the effects of peptide treatment on HDL cholesterol in a murine model of diet-induced obesity after 14 weeks of treatment.
IPGTT. IPGTT was performed according to the Medicilon-MPI Preclinical Research (Shanghai) LLC SOP on Intraperitoneal (IP) Glucose Tolerance Test with slight modifications. Mice were fast overnight before the baseline glucose levels assessed in the next morning. After that, an IP injection of 1 g/kg D-glucose was given to each animal and the blood glucose levels were then measured on 15, 30, 60 and 120 minutes post the IP injection.

For a further experiment, the system named is HFD/STZ rats. The experiment is described as follows: HFD/STZ rat model of metabolic syndrome, 10-week peptide treatment, Example 2. It counts as in vivo. The note with it: for TG level before peptide treatment: baseline; for change in blood glucose during 10-week peptide treatment / change in body weight during 10-week peptide treatment: SS-31 10, 3, 1 mg/kg or SS-20 10, 3 mg/kg s.c. once daily 5 days a week. As for the experimental part: This study was initiated to investigate the effects of SS-31 and SS-20 in a model of metabolic syndrome over a 10 week period. Rats were fed with a high-fat diet for 6 weeks and then administered a single dose of STZ (30 mg/kg). The rats were maintained on a HFD until 14 weeks after STZ administration. Control rats fed normal rat chow (NRC) for 6 weeks were then administered citrate buffer without STZ. After 5 months, diabetic rats were treated with SS-31 (10 mg/kg, 3 mg/kg, 1 mg/kg s.c. once daily), SS-20 (10 mg/kg, 3 mg/kg s.c. once daily) or vehicle (saline) 5 days a week for 10 weeks. The study groups were as follows:
Group A: HFD/STZ+SS-31 10 mg/kg s.c. q.d. (Mon-Fri.), n=12;
Group B: HFD/STZ+SS-31 3 mg/kg s.c. q.d. (Mon-Fri.), n=12;
Group C: HFD/STZ+SS-31 1 mg/kg s.c. q.d. (Mon-Fri.), n=10;
Group D: HFD/STZ+SS-20 10 mg/kg s.c. q.d. (Mon-Fri.), n=10;
Group E: HFD/STZ+SS-20 3 mg/kg s.c. q.d. (Mon-Fri.), n=10;
Group F: HFD/STZ+vehicle s.c. q.d. (Mon-Fri.), n=10;
Group G: NRC +vehicle s.c. q.d. (Mon-Fri.), n=10.
HFD feeding for 6 weeks produced obvious body weight gain (452.9±3.8g in HFD group vs. 425.5±7.1 g, P<0.01) and STZ administration increased blood glucose (26.5±0.5 mmol/L in HFD/STZ rats vs. 9.8±0.5 mmol/L in NRC rats, P<0.001) and hyperlipidemia (P<0.01), indicating a metabolic syndrome-like disorder in these test subjects.

Experiment [1] relates to STZ-induced diabetic Sprague-Dawley rats. The experiment is described as follows: STZ diabetes model in male Sprague-Dawley rats, Example 4. It counts as in vivo, rat. The settings on record: 10 mg/kg s.c. q.d. 5 days a week, after peptide treatment for 2 weeks or 4 weeks, vs. STZ/Saline group. On the procedure:
The objective of this study was to explore the protective effect of SS-31 or SS-20 against Streptozotocin (STZ) induced diabetic complications and metabolic syndrome in male Sprague-Dawley rats.
Rat models of type 1 diabetes were established by administration of high-dose STZ (30 mg/kg). Rats of the same batch fed with regular chow are used as normal control. The study groups included: Group A: STZ+SS-31 10 mg/kg s.c. q.d. (M.-F.), n=11; Group B: STZ+SS-20 10 mg/kg s.c. q.d. (M.-F.), n=11; Group C: STZ+vehicle s.c. q.d. (M.-F.), n=10; Group D: NRC +vehicle s.c. q.d. (M.-F.), n=10.
The compounds were dissolved in saline. The treatment was given once a day (5 days a week) with injection site to be alternated. The concentration of SS-31 and SS-20 dosed at 10mg/kg is 5mg/ml. The treatment volume (0.2 ml/100 g for s.c.) for each test animal was adjusted according to its body weight taken on the beginning of each week. STZ was dissolved in 0.1 M citrate buffer (pH4.5) to concentration of 20 mg/mL. STZ was injected intraperitoneally.

The subject of a further experiment is HFD/STZ SD rats. The experiment is described as follows: Rat model of metabolic syndrome (HFD + low-dose STZ), Example 1. Format: in vivo. The settings on record: for body weight increase over the 10-week treatment period: 10 mg/kg s.c. q.d. 5 days a week, by the end of 10th week, HFD/STZ control 3.6%, NRC 23.3%; for effect on blood glucose: 10 mg/kg s.c., week 4 post peptide treatment, vs. HFD/STZ vehicle rats. As for the experimental part:
The effects of aromatic-cationic peptides in treating a subject suffering from metabolic syndrome were investigated in a Sprague-Dawley rat model over […]. The example describes the results of such experiments.
In vivo models. A rat model of metabolic syndrome was established by combination of 6-week HFD and low-dose STZ (40 mg/kg) injection in SD rats. Rats of the same batch fed with normal chow (NRC) were used as a control.
Study groups. Group A: NRC+PBS s.c. q.d. (Mon-Fri)*, n=5; Group B: HFD +STZ+PBS s.c. q.d. (Mon-Fri), n=8; Group C:HFD+STZ+SS-31 10 mg/kg s.c. q.d. (Mon-Fri), n=8; Group D: HFD+STZ+SS-20 10 mg/kg s.c. q.d. (Mon-Fri), n=8.
Preparation and administration of test compounds. SS-31 or SS-20 was dissolved in 0.01 M PBS (pH 7.0). The 10-week treatment was given once a day (5 days a week) with s.c. injection site alternated. The concentration of SS-31 and SS-20 was 5.0 mg/mL. The injection volume (0.2 mL/100 g) for each test animal was adjusted according to body weight taken on the beginning of each week. STZ was dissolved in 0.1 M citrate buffer (pH 4.5) to concentration of 20 mg/mL. STZ is injected intraperitoneally.
Blood glucose. Blood glucose was tested by ACCU-CHEK® Advantage™ blood glucose meter and test strips from Roche diagnostics GmbH (Mannheim, Germany).
Blood sample handling. Blood samples were collected by tail snip. […] Collected blood samples were set at room temperature for 30 min to allow clotting before being centrifuged at 1,200×g for 10 min. The supernatant were collected and re-centrifuged at 1,200×g for another 5 min to generate the serum. Serum samples were aliquotted and stored at −20° C. until being used in analysis.
Statistics: Statistic analysis oft-test and one-way ANOVA was performed by SPSS (Statistical Package for Social Science) analysis software.

Setting [2] is: 10 mg/kg s.c. q.d. 5 days a week.

Values joined by “and” are separate entries in the source; they are usually repeats but may differ in a detail not shown here. Equal entries are not always repeated. Non-standard residues stand in square brackets, D forms with d. No end group written: not given here.

Turning to `CN(CCOc1ccc(CC2SC(=O)NC2=O)cc1)c1ccccn1` (centres unmarked) [Rosi, Rosiglitazone, reference compound], the “Glucose Tolerance (IPGTT), Week 5” value in the experiment with DIO C57BL/6 mice (2 mg/kg p.o.) amounted to 1487.5 ± 44.2.

For the compound D-Arg-2′,6′-Dmt-Lys-Phe-NH2 [SS-31], the “TG level before peptide treatment” value in the experiment on HFD/STZ rats (3 mg/kg group) was 4.17 ± 0.88 mM. In the experiment on HFD/STZ rats (3 mg/kg s.c. q.d. 5 days a week), the “TG level after 10 weeks' peptide treatment” value worked out at 2.46 ± 0.52 mM. The “TG level before peptide treatment” value with HFD/STZ rats (10 mg/kg group) amounted to 3.77 ± 0.38 mM. Also, the “TG level after 10 weeks' peptide treatment” value in the experiment with HFD/STZ rats (setting [2]) is 1.75 ± 0.33 mM. Also, in the experiment with HFD/STZ rats, the “change in blood glucose during 10-week peptide treatment” value is on record as “no obvious changes” and the “change in body weight during 10-week peptide treatment” value was “no obvious changes”. In experiment [1], the TG level entry was “increased less than STZ/Saline group”. In addition, in the experiment with HFD/STZ SD rats, the “body weight increase over the 10-week treatment period” value stood at 16.3% and the “effect on blood glucose” value is listed as “down-regulation effect on blood glucose”. Besides, in the experiment with DIO C57BL/6 mice (3 mg/kg s.c.), the “Glucose Tolerance (IPGTT), Week 5” value came to 1460.6 ± 64.1. Besides, the “Glucose Tolerance (IPGTT), Week 5” value in the experiment on DIO C57BL/6 mice (10 mg/kg s.c.) is 1584.3 ± 78.3. For the same compound, in the experiment on DIO C57BL/6 mice, the “glucose tolerance in the obese mouse model (in words)” value is listed as “significantly improve glucose tolerance”, the abdominal fat index entry was “capable of reducing” and the subcutaneous fat index result is “capable of reducing”.

Regarding F[dR]FK-NH2 [SS-20], in the experiment on HFD/STZ rats (3 mg/kg group, 3 mg/kg), the “TG level before peptide treatment” value was 4.66 ± 1.40 mM and 3.90 ± 0.65 mM. Also, the “TG level after 10 weeks' peptide treatment” value with HFD/STZ rats (3 mg/kg s.c. q.d. 5 days a week, 3 mg/kg) was 2.43 ± 0.47 mM and 3.70 ± 1.16 mM. Besides, in the experiment with HFD/STZ rats (10 mg/kg group), the “TG level before peptide treatment” value amounted to 4.17 ± 1.02 mM. Further, the “TG level after 10 weeks' peptide treatment” value in the experiment with HFD/STZ rats (setting [2]) turned out to be 1.97 ± 0.46 mM. Further, in the experiment with HFD/STZ rats, the “change in blood glucose during 10-week peptide treatment” value was “no obvious changes” and the “change in body weight during 10-week peptide treatment” value is recorded as “no obvious changes”. Further, the TG level result in experiment [1] was “increased less than STZ/Saline group”. In the experiment on HFD/STZ SD rats, the “body weight increase over the 10-week treatment period” value was 9.0% and the “effect on blood glucose” value is recorded as “down-regulation effect on blood glucose”. Besides, the “Glucose Tolerance (IPGTT), Week 5” value in the experiment on DIO C57BL/6 mice (3 mg/kg s.c.) is 1534.1 ± 53.3. Moreover, the “Glucose Tolerance (IPGTT), Week 5” value with DIO C57BL/6 mice (10 mg/kg s.c.) was 1494.5 ± 54.4. Besides, in the experiment with DIO C57BL/6 mice, the “glucose tolerance in the obese mouse model (in words)” value is “significantly improve glucose tolerance”, the abdominal fat index entry is reported as “capable of reducing” and the subcutaneous fat index entry is “capable of reducing”.

The values are drawn from patent US20190209641A1, “METHODS FOR PREVENTING OR TREATING METABOLIC SYNDROME” (Cornell University, priority 2009, published 2019).
